Patent publication EP3797781A1, “USE OF EC-7072 AND SYNERGIC COMPOSITIONS THEREOF IN TREATMENT OF CHRONIC LYMPHOCYTIC LEUKEMIA” (priority 2019, dated 2021)

Experiments:
Assay type in all cases: cell-based, human
T cells (CD3^+CD56^-) = assay: T cell numbers, viability and apoptosis in PBMCs (flow cytometry, DiOC6(3)/PI staining); conditions: idelalisib 10 µM, 48 hours; PBMCs from patients with CLL (n = 6 - 8); Figure 4G
Protocol: (§1) To evaluate absolute cell numbers, an equal volume of PKH26 reference microbeads (Sigma-Aldrich) was added to each sample after staining for immune subset identification. Microbeads (5x10^3) were acquired by flow cytometry and absolute numbers of each immune population within the sample were calculated. Normalized percentage values were calculated considering the control (DMSO)-treated cells as 100%.
(§2) Cell viability and apoptosis were evaluated by double-staining with the mitochondrial inner transmembrane potential (ΔΨm)-sensitive dye DiOC6(3) (3,3'-dihexyloxacarbocyanine iodide; Sigma-Aldrich) and the exclusion dye propidium iodide (PI; Immunostep), allowing identification of apoptotic [DiOC6(3)^low PI^-] and dead [PI^+] cells as per Proc. Natl. Acad. Sci. U.S.A. (2014) 111(8):3020-3025 and Methods Mol. Biol. (2016) 1419:1-16. Briefly, PBMCs were resuspended in culture medium containing 20 nM DiOC6(3) and incubated for 30 minutes at 37 °C. Then, PI (1 µg/mL) was added and cells were further incubated for 10 minutes at room temperature (RT). Cells were analyzed by flow cytometry considering DiOC6(3)^+PI^- cells as viable. In some experiments, apoptosis was evaluated by staining with Annexin V/PI. Thus, PBMCs were incubated in Annexin V binding buffer containing 5 µg/mL Annexin V-FITC (Biolegend) for 15 minutes at RT and PI (1 µg/mL) was subsequently added. Data were normalized to the untreated control as a percentage. Only samples with at least 60% of viable cells (DiOC6(3)^+; Annexin V^-) in the control (DMSO) condition were employed in this study.
(§3) The effect of EC-7072 toward healthy immune subsets, T lymphocytes and natural killer (NK) cells, which are chronically exposed to leukemia cells in the peripheral blood of patients with CLL was assessed by: • (i) incubating PBMCs isolated from patients with CLL (n = 10) following treatment with increasing concentrations of EC-7072 (0 - 400 nM) for 24 hours. Numbers of T cells (CD3^+CD56^-) (Figure 2A) and NK cells (CD3^-CD56^+) (Figure 2B) were evaluated by flow cytometry and normalized to their respective control (DMSO) condition for each individual patient to obtain percentage of relative number of T cells and NK cells, respectively; • (ii) incubating PBMCs isolated from patients with CLL (n = 6 - 10) following treatment with increasing concentrations of EC-7072 (0 - 400 nM) for 24 hours. Viability of immune subsets (leukemia cells, T cells and NK cells) was determined by cytofluorometric assessment of DiOC6(3)/PI staining and normalized to their respective control (DMSO) condition for each individual patient to obtain percentage of viable [DiOC6(3)^+] cells (Figures 2C and 2D); • (iii) incubating PBMCs isolated from patients with CLL (n = 11) following treatment with DMSO or EC-7072 (200 nM) for 24 hours. Numbers of CD4^+ cells (Figure 2E) and CD8^+ T cells (Figure 2F) were evaluated by flow cytometry and normalized to their respective control (DMSO) condition for each individual experiment; • (iv) incubating PBMCs isolated from healthy donors (n = 15) following treatment with EC-7072 (200 nM) for 24 hours. […]

NK cells (CD3^-CD56^+) = assay: NK cell numbers, viability and apoptosis in PBMCs (flow cytometry, DiOC6(3)/PI staining); conditions: idelalisib 10 µM, 48 hours; PBMCs from patients with CLL (n = 6 - 8); Figure 4G
Protocol: as §1, §2, §3

[1] = tested on: primary fibroblasts from healthy donors; assay: Cell death of primary fibroblasts by PI staining; conditions: 200 nM, 24 hours; n = 4
Protocol: (§4) Effectiveness of EC-7072 against different B-cell malignancies was assessed by; • (i) incubating primary fibroblasts from healthy donors (n = 4) and HK-2 cells from healthy human adult kidney (n = 3) following treatment with MTA (200 nM) or EC-7072 (200 nM) for 24 hours. Cell death was evaluated by PI staining to obtain the percentages corresponding to the [PI^+] subset (Figure 5A) and the mean percentage of [PI^+] cells (Figure 5B); • (ii) treating MEC-1, GRANTA-519, Z-138, JVM-2, CA-46, Ramos, Raji and U266 cell lines (n = 3) following treatment with EC-7072 (500 nM) followed by incubation for 24 hours. Cell viability was assessed by DiOC6(3)/PI staining and normalized to control (DMSO) condition to obtain mean percentage of viable [DiOC6(3)^+] cells (Figure 5C).

HK-2 cells = assay: Cell death of HK-2 cells by PI staining; conditions: 200 nM, 24 hours; n = 3
Protocol: as §4

primary CLL cells = assay: Leukemia cell viability and apoptosis by DiOC6(3)/PI staining and flow cytometry; conditions: Z-VAD-fmk 0-100 µM pretreatment, then EC-7072 200 nM for 24 hours; n = 6
Protocol: as §2
The in vitro cytotoxic activity of EC-7072 against primary CLL cells was assessed by: • (i) incubating PBMCs isolated from patients with CLL (n = 13) following treatment with increasing concentrations of EC-7072 (0 - 400 nM) for 24 hours. Numbers of leukemia cells were evaluated by flow cytometry and normalized to their respective control (DMSO) condition for each individual patient to obtain percentage of leukemia cells (Figure 1A); • (ii) incubating PBMCs from patients with CLL (n = 10) with or without EC-7072 (100-400 nM) for 24 hours. Viability of leukemia cells was determined by cytofluorometric assessment of DiOC6(3)/PI staining and normalized to their respective control condition to obtain percentage viability (Figure 1B); • (iii) incubating PBMCs from patients with CLL (n = 10) with increasing concentrations of EC-7072 (0 - 400 nM) for 24 hours. Apoptosis of leukemia cells was determined by DiOC6(3)/PI staining and flow cytometry to obtain the mean percentages of apoptotic [DiOC6(3)^low PI^-] and dead [PI^+] cells (Figure 1C); • (iv) incubating PBMCs from patients with CLL (n = 10) with or without EC-7072 (200 nM) for 12 to 72 hours. Viability of leukemia cells was determined by DiOC6(3)/PI staining and normalized to their respective control condition to obtain percentage viability (Figure 1D); • (v) incubating PBMCs from patients with CLL (n = 24) with MTA (200 nM) or EC-7072 (200 nM) for 24 hours. Leukemia cell death was determined by DiOC6(3)/PI staining and flow cytometry to obtain the mean percentages of apoptotic [DiOC6(3)^low PI^-] and dead [PI^+] cells (Figure 1E); • (vi) incubating PBMCs from patients with CLL (n = 63) or healthy donors (n = 20) with or without EC-7072 (200 nM) for 24 hours. Viability of leukemia cells and healthy B cells was evaluated by DiOC6(3)/PI staining and normalized to their respective control condition to obtain percentage viability (Figure 1F); • (vii) incubating PBMCs from patients with CLL (n = 62) following treatment with EC-7072 (200 nM) for 24 hours and obtaining a cytogenetic profile for each patient. Viability of leukemia cells was evaluated by DiOC6(3)/PI staining and normalized to their respective control (DMSO) condition for each individual patient to obtain the percentage of viable [DiOC6(3)^+] cells (Figure 1G); • (viii) incubating PBMCs from patients with CLL (n = 59) following treatment with EC-7072 (200 nM) for 24 hours and determining mutational status of IgHV for each patient. Viability of leukemia cells was evaluated by DiOC6(3)/PI staining and normalized to their respective control (DMSO) condition for each individual patient to obtain the percentage of viable [DiOC6(3)^+] cells (Figure 1H). […]

active caspase-3 = assay: Caspase-3 activity assay in leukemia cells (flow cytometry); conditions: Z-VAD-fmk 0-100 µM pretreatment, then EC-7072 200 nM for 24 hours; n = 6
Protocol: Intracellular levels of activated caspase-3 were measured by using CaspGLOW™ Fluorescein Active Caspase-3 Staining Kit (Invitrogen). In brief, EC-7072 (200 nM) or DMSO-treated PBMCs from patients with CLL were incubated with FITC-DEVD-fmk for 30 minutes at 37 °c and fluorescence was next analyzed by flow cytometry in leukemia cells. For some experiments, cells were pretreated for 2 hours with the indicated doses of the broad-spectrum caspase inhibitor Z-VAD-fmk.
The induction of caspase-dependent apoptosis on primary CLL cells by EC-7072 was assessed by: • (i) incubating PBMCs isolated from patients with CLL (n = 6) following treatment with increasing concentrations of EC-7072 (0 - 400 nM) for 24 hours. Apoptosis of leukemia cells was evaluated by cytofluorometric assessment of Annexin V/PI staining to obtain percentages of apoptotic [Annexin V^+ PI^-] and dead [PI^+] cells (Figure 3A); • (ii) incubating PBMCs and T cells isolated from patients with CLL (n = 3) following treatment with EC-7072 (200 nM) for 24 hours. T cell apoptosis was evaluated by cytofluorometric assessment of Annexin V/PI staining to obtain percentages of viable [Annexin V-], apoptotic [Annexin V^+ PI^-] and dead [PI^+] cells (Figure 3B); • (iii) incubating PBMCs isolated from patients with CLL (n = 6) following treatment with EC-7072 (0 - 400 nM) for 24 hours. […]

CC[C@H](Nc1ncnc2[nH]cnc12)c1nc2cccc(F)c2c(=O)n1-c1ccccc1 [Idelalisib, reference compound]
viability of T cells (T cells (CD3^+CD56^-)): negligible effects | viability of NK cells (NK cells (CD3^-CD56^+)): negligible effects

COC(C(=O)C(O)C(C)O)C1Cc2cc3cc(OC4CC(OC5CC(O)C(O)C(C)O5)C(O)C(C)O4)c(C)c(O)c3c(O)c2C(=O)C1OC1CC(OC2CC(OC3CC(C)(O)C(O)C(C)O3)C(O)C(C)O2)C(O)C(C)O1 (stereo not drawn) [MTA, Mithramycin A, reference compound]
viability of primary human fibroblasts (PI^+ cells) [1]: high toxicity | viability of HK-2 cells (PI^+ cells) (HK-2 cells): high toxicity

Z-VAD-fmk [reference compound]
death of primary CLL cells induced by EC-7072 after Z-VAD-fmk pretreatment (primary CLL cells): completely abrogated the death | active caspase-3 levels on leukemia cells after Z-VAD-fmk pretreatment (active caspase-3): decrease of active caspase-3 levels
